Literature values, collected in article PMC7028125 (Clinical Pharmacology in Drug Development, 2019).

Legend:
[1] = system: P‐glycoprotein; design: method as in PMID 23132334; settings: in vitro
[2] = mass balance study of 20 mg [14C]‐dolutegravir (80 µCi)
[3] = system: organic cation transporter 2; design: method as in PMID 23132334; settings: in vitro
[4] = system: multidrug and toxin extrusion 1 transporter; settings: in vitro
[5] = system: breast cancer resistance protein; design: method as in PMID 23132334; settings: in vitro

For `C[C@@H]1CCO[C@H]2Cn3cc(C(=O)NCc4ccc(F)cc4F)c(=O)c(O)c3C(=O)N12` [Dolutegravir, dolutegravir], the “Substrate for P‐glycoprotein (in words)” value [1] is given as “substrate”, the “Dolutegravir recovered in feces” value [2] is given as 64.0% and the “Dolutegravir recovered in urine” value [2] is given as 31.6%. For the same compound, the “Inhibition of organic cation transporter 2 (in words)” value [3] was “potently inhibits”, the “Inhibition of multidrug and toxin extrusion 1 transporter (in words)” value [4] was “potently inhibits” and the “Substrate for breast cancer resistance protein (in words)” value [5] was “substrate”.
